Values joined by “and” are separate entries in the source; they are usually repeats but may differ in a detail not shown here. Equal values may be shown once.
Legend:
[1] = tested on: Hs578T; assay: drug sensitivity score (DSS), CellTiter-Blue viability (DSS (AUC-based score)); higher = stronger viability inhibition; extreme values may be limits of the assay; details: incubation time: 72 h
Description: (§1)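 DSRT with the CellTiter-Blue (resazurin reduction) viability readout, fluorescence 560/590 nm, 72 h incubation. Plates were normalised to DMSO and benzethonium chloride controls. DSS is computed from the area under the fitted dose-response curve (5 or 9 concentrations).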

[2] = tested on: MDA-MB-436; assay: as above; details: incubation time: 72 h
Description: as §1

[3] = tested on: CAL-85-1; assay: as above; details: incubation time: 72 h
Description: as §1

[4] = tested on: SK-BR-3; assay: as above; details: incubation time: 72 h
Description: as §1

[5] = tested on: BT-549; assay: as above; details: incubation time: 72 h
Description: as §1

[6] = tested on: MDA-MB-468; assay: as above; details: incubation time: 72 h
Description: as §1

[7] = tested on: MFM-223; assay: as above; details: incubation time: 72 h
Description: as §1

[8] = tested on: HDQ-P1; assay: as above; details: incubation time: 72 h
Description: as §1

[9] = tested on: MDA-MB-468; details: 72 h
In short: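 Breast cancer cell lines in 20 µl suspension were added to 384-well plates already holding compound at 5 concentrations, spaced in 10-fold steps across a compound-specific 10,000-fold range, and incubated for 72 h. CellTox Green fluorescence (485/520 nm) was read first to measure cell death, followed by CellTiter-Glo luminescence for viability after 10 min at room temperature. Each plate was normalised to 0.1 % DMSO and a positive kill control. EC50 values came from dose-response curve fits and were censored at the top concentration.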

SMILES	drug sensitivity score [1]	drug sensitivity score [2]	drug sensitivity score [3]	drug sensitivity score [4]	drug sensitivity score [5]	drug sensitivity score [6]	drug sensitivity score [7]	drug sensitivity score [8]	EC50, CellTiter-Glo [9]
Oc1ccc2c(c1)CC[C@H](c1ccccc1)[C@@H]2c1ccc(OCCN2CCCC2)cc1 [Lasofoxifene]	0	0	0	0	0	0	0	0	
O=C(Nc1ccncc1)C(=O)c1cn(Cc2ccc(Cl)cc2)c2ccccc12 [Indibulin]	11.3	8.9	11.8	25.9	16.6	15.3	5.75	12.5	0.273 µM
c1ccc2c(CCNc3ccc(Nc4ccncc4)cc3)c[nH]c2c1 [Serdemetan]	2.84	8.76	0	0	6.96	0	0	0	2.28 µM
CNC(=O)c1cccc(-c2ccc3c(N4CCOC[C@@H]4C)nc(N4CCOC[C@@H]4C)nc3n2)c1 [AZD2014]									0.497 µM
Cc1cc(Nc2cc(CN3CCOCC3)c3nc(C)c(Cc4ccc(Cl)cc4F)n3n2)n[nH]1	7.69	7.24	4.09	6.64	6.94	10.3	13.5	11.8	
COc1cc2/c(=N/c3ccc(Br)cc3F)nc[nH]c2cc1OCC1CCN(C)CC1 [Vandetanib]	3.9	13	6.73	4.07	5.01	6.11	8.55	14	0.00782 µM
C=C1C[C@@H]2[C@H](CC[C@]3(C)C(=O)CC[C@@H]23)[C@@]2(C)C=CC(=O)C=C12 [Exemestane]	0	0	0	0	0	0	0	0	
COc1cc(O)c2c(c1)/C=C/C[C@H](O)[C@H](O)C(=O)/C=C\C[C@H](C)OC2=O [(5Z)-7-Oxozeaenol]									0.953 µM
CCOC(=O)CCNc1cc(N2CCc3ccccc3CC2)nc(-c2ccccn2)n1 [GSK-J4]									1.89 µM
CC(C)C[C@@H](C(=O)N[C@H](C(=O)OC1CCCC1)c1ccccc1)[C@H](O)C(=O)NO [Tosedostat]	2.31	1.84	4.66	0	11.3	13.2	8.63	4.23	0.0756 µM
COc1cc(OC2CCN(C)CC2)ccc1Nc1ncc2c(n1)n(C1CCCC1)c(=O)n2C [AZ 3146]	0	0	1.25	2.13	0	0	0	0	6.65 µM
COCC1(CO)C(=O)C2CCN1CC2 (stereo not given) [Prima-1 Met]	0.00378	0	0	0	0	0	0	0	
O=P1(N(CCCl)CCCl)NCCCO1 (stereo not given) [Cyclophosphamide]	0	0.105	0	0	0	0	0	0	
COC(=O)c1ccc2c(c1)NC(=O)/C2=C(\Nc1ccc(N(C)C(=O)CN2CCN(C)CC2)cc1)c1ccccc1 [BIBF 1120]	1.63	1.32	1.29	2.7	3.02	2.89	9.32	1.16	
O=C(/C=C/c1cccc(S(=O)(=O)Nc2ccccc2)c1)NO [Belinostat]	8.1	12.2	12.2	19	8.08	8.06	12.7	11.8	0.41 µM
CN(C)c1nc(N(C)C)nc(N(C)C)n1 [Altretamine]	0	0	1.01	0	0	0	0	0	
CCc1c2c(nc3ccc(OC(=O)N4CCC(N5CCCCC5)CC4)cc13)-c1cc3c(c(=O)n1C2)COC(=O)[C@]3(O)CC [Irinotecan]	0		2.57 and 1.55	6.6 and 2.45		6.9 and 5.16			1.62 µM

SMILES	drug sensitivity score [1]	drug sensitivity score [2]	drug sensitivity score [3]	drug sensitivity score [4]	drug sensitivity score [5]	drug sensitivity score [6]	drug sensitivity score [7]	drug sensitivity score [8]	EC50, CellTiter-Glo [9]
N#Cc1ccc(COC[C@H]2O[C@@H](n3c(NCc4ccc(Cl)c(Cl)c4)nc4c(N)ncnc43)[C@H](O)[C@@H]2O)cc1	0	4.85	0	1.46	4.23	1.65	0	0	2.27 µM
Cc1cc(Nc2cc(CN3CCOCC3)c3nc(C)c(Cc4ccc(Cl)cc4F)n3n2)n[nH]1 [Gandotinib]									0.711 µM
Cc1[nH]c2ccccc2c1CCNCc1ccc(/C=C/C(=O)NO)cc1 [Panobinostat]	17.6	9.42	18.2	23	9.07	11.3	14.6	14	0.039 µM
O=C(Nc1cccnc1)N1CCC(Cc2cccc(Oc3ccc(C(F)(F)F)cn3)c2)CC1 [PF-3845]	0.892	0	0	0	4.79	0.694	0	0	2.5 µM
S=P(N1CC1)(N1CC1)N1CC1 [Thio-TEPA]	0	0	0	0	0	0	0	0	
COC(=O)c1ccc2c(c1)NC(=O)/C2=C(\Nc1ccc(N(C)C(=O)CN2CCN(C)CC2)cc1)c1ccccc1 [Nintedanib]									3.36 µM
Nc1cc(C(F)(F)F)c(-c2cc(N3CCOCC3)nc(N3CCOCC3)n2)cn1 [Buparlisib]									2.71 µM
NC(=O)c1ccc(I)c([N+](=O)[O-])c1 [Iniparib]	0	0	0	0	0	0	0	0	0.23 µM
Nc1cc(C(F)(F)F)c(-c2cc(N3CCOCC3)nc(N3CCOCC3)n2)cn1 [BKM-120]	5.79	4.25	9.38	16.8	8.93	6.64	9.9	9.78	
COc1cc2c(NC3CCN(C(C)C)CC3)nc(N3CCC(F)(F)CC3)nc2cc1OCCCN1CCCC1 [UNC0642]									2.05 µM
CNC(=O)c1cc(Oc2ccc(NC(=O)Nc3ccc(Cl)c(C(F)(F)F)c3)c(F)c2)ccn1 [Regorafenib]	2.98	0	0	0	1.64	1.71	9.2	0	6.34 µM
COc1cc2ncnc(Nc3ccc(F)c(Cl)c3)c2cc1OCCCN1CCOCC1 [Gefitinib]		0	8.75 and 10.2	6.49 and 10.4	2.48 and 0.865	9.52 and 7.51	0		2.8 µM
CO[C@H]1C[C@@H]2CC[C@@H](C)[C@@](O)(O2)C(=O)C(=O)N2CCCC[C@H]2C(=O)O[C@H]([C@H](C)C[C@@H]2CC[C@@H](OP(C)(C)=O)[C@H](OC)C2)CC(=O)[C@H](C)/C=C(\C)[C@@H](O)[C@@H](OC)C(=O)[C@H](C)C[C@H](C)/C=C/C=C/C=C/1C [Ridaforolimus]	19.1	1.25	16	16.8	17.6	16.7	22.1	7.08	0.00033 µM
Cc1ccc(NC(=O)c2ccc(CN3CCN(C)CC3)cc2)cc1Nc1nc(-c2cccnc2)cs1 [Masitinib]	0	0.552	0	2.27	0	0	0	0	2.29 µM
COCC[n+]1c2c(n(Cc3cnccn3)c1C)C(=O)c1ccccc1C2=O [YM155]	22.6	37.9	38	37	26.8	40.3	29.7	33.6	0.00373 µM
CN(C)CCOc1ccc(/C(=C(/CCCl)c2ccccc2)c2ccccc2)cc1 [Toremifene]	0	1.83	0	0	0	2.87	0	0	

Reference: the supplement of paper PMC4862054
